From patent publication US10273230B2, “Substituted phenyl alkanoic acid compounds as GPR120 agonists and uses thereof” (Piramal Enterprises Limited, priority 2014, dated 2019)

Molecular target: GPR120 receptor (Homo sapiens (Human), UniProt Q5NUL3)
Experiment: Beta (β) arrestin 2 Interaction Assay (BRET assay), β-galactosidase enzyme fragment complementation
Type: cell-based
Details: CHO-K1 cells stably expressing the GPR120 receptor; β-arrestin recruitment; 2 hours incubation; 30 μM to 1 nM
Method: Beta (β) arrestin 2 Interaction Assay (BRET assay) was performed using CHO-K1 cells stably expressing the GPR120 receptor using β-galactosidase (Beta gal) enzyme fragment complementation assay. The measurement of GPR120 activation upon agonist activation was directly provided by β-arrestin recruitment. One day before the β-arrestin 2 assay, CHO-K1 cells were seeded and incubated overnight at 37° C. in a 5% CO2 humidified atmosphere. Cells were treated with the test compounds in the various concentrations ranging from 30 μM to 1 nM and incubated for 2 hours for GPCR (GPR120) activation. Extent of Arrestin recruitment was measured by adding detection reagents for Beta gal complementation assay and was further incubated for 1 hour. The chemi-luminescent signal was detected on Polar Star (BMG Labtech). The dose-response curve was analyzed using Sigma Plot/Graph Pad. The EC50 (concentration of the test compounds where 50% of compounds' maximal activity is observed) values were calculated from the dose-response curve.

Chain of GPR120 receptor (Q5NUL3 whole entry, the tested form may be a part): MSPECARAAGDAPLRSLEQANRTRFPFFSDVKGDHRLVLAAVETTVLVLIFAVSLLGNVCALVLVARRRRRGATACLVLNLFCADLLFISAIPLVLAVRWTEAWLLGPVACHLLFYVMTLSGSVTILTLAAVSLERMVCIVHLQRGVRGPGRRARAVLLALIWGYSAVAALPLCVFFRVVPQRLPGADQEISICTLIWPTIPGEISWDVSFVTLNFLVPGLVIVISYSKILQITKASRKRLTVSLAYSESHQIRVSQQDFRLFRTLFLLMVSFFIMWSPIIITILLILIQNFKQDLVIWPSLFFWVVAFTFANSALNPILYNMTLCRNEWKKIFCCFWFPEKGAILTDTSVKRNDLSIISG
Chain of GPR120 receptor (P32121 whole entry partner, the tested form may be a part): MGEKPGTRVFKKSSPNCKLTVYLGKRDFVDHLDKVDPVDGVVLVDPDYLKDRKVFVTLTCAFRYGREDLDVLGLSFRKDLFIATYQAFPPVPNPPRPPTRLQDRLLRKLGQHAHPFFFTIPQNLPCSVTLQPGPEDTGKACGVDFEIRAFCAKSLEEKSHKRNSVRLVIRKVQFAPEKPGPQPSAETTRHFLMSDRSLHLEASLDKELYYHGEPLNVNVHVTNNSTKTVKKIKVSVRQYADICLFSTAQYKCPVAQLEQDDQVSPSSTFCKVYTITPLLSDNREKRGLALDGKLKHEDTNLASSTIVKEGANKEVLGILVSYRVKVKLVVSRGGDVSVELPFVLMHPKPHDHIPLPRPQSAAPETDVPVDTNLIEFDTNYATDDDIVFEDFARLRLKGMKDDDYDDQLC

EC50 [nM] | Compound
500 to 5000 | N#CC1(c2ccc(C3=C(COc4ccc(CCCC(=O)O)cc4)CCCC3)cc2)CC1 [Example 1, 4-(4-((4′-(1-cyanocyclopropyl)-3,4,5,6-tetrahydro-[1,1′-biphenyl]-2-yl)methoxy)phenyl) butanoic Acid]
500 to 5000 | O=C(O)CCCc1ccc(OCC2=C(c3nc4c(s3)CCCC4)CCCC2)cc1 [Example 4, 4-(4-((2-(4,5,6,7-tetrahydrobenzo[d]thiazol-2-yl)cyclohex-1-en-1-yl)methoxy)phenyl) butanoic Acid]
500 to 5000 | COc1ccc(C2=C(COc3ccc(CCCC(=O)O)cc3)CCCC2)cc1 [Example 6, 4-(4-((4′-methoxy-3,4,5,6-tetrahydro-[1,1′-biphenyl]-2-yl)methoxy)phenyl)butanoic Acid]
50 to 500 | O=C(O)CCCc1ccc(OCC2=C(c3ccc(C4CC4)cc3)CCCC2)cc1 [Example 7, 4-(4-((4′-cyclopropyl-3,4,5,6-tetrahydro-[1,1′-biphenyl]-2-yl)methoxy)phenyl)butanoic Acid]
500 to 5000 | Nc1ncc(C2=C(COc3ccc(CCCC(=O)O)cc3)CCCC2)cc1C(F)(F)F [Example 8, 4-(4-((2-(6-amino-5-(trifluoromethyl)pyridin-3-yl)cyclohex-1-en-1-yl)methoxy)phenyl)butanoic Acid]
50 to 500 | O=C(O)CCCc1ccc(OCC2=C(c3ccc4c(c3)CCCC4)CCCC2)cc1 [Example 9, 4-(4-((2-(5,6,7,8-tetrahydronaphthalen-2-yl)cyclohex-1-en-1-yl)methoxy)phenyl) butanoic Acid]
500 to 5000 | O=C(O)CCCc1ccc(OCC2=C(C3=CCCCC3)CCCC2)cc1 [Example 10, 4-(4-([1,1′-bi(cyclohexane)]-1,1′-dien-2-ylmethoxy)phenyl) butanoic Acid]
500 to 5000 | COc1ccc(C2=C(COc3ccc(CCCC(=O)O)cc3)CCCC2)cn1 [Example 14, 4-(4-((2-(6-methoxypyridin-3-yl)cyclohex-1-en-1-yl)methoxy)phenyl) butanoic Acid]
50 to 500 | Cc1ccc(C2=C(COc3ccc(CCCC(=O)O)cc3)CCCC2)cc1 [Example 15, 4-(4-((4′-methyl-3,4,5,6-tetrahydro-[1,1′-biphenyl]-2-yl)methoxy)phenyl) butanoic Acid]
500 to 5000 | N#CC1(c2ccc(C3=C(COc4ccc(CCCC(=O)O)cc4)CCCCC3)cc2)CC1 [Example 21, 4-(4-((2-(4-(1-cyanocyclopropyl)phenyl)cyclohept-1-en-1-yl)methoxy)phenyl) butanoic Acid]
50 to 500 | Cc1ccc(C2=C(COc3ccc(CCCC(=O)O)cc3)CCCCC2)cc1 [Example 22, 4-(4-((2-(p-tolyl)cyclohept-1-en-1-yl)methoxy)phenyl)butanoic Acid]
500 to 5000 | N#CC1(c2ccc(C3=C(COc4ccc(CCCC(=O)O)cc4)COCC3)cc2)CC1 [Example 48, 4-(4-((4-(4-(1-cyanocyclopropyl)phenyl)-5,6-dihydro-2H-pyran-3-yl)methoxy)phenyl) butanoic Acid]
500 to 5000 | O=C(O)CCCc1ccc(OCC2=C(c3ccc4c(c3)CCCC4)CCOC2)cc1 [Example 49, 4-(4-((4-(5,6,7,8-tetrahydronaphthalen-2-yl)-5,6-dihydro-2H-pyran-3-yl)methoxy)phenyl) butanoic Acid]
500 to 5000 | Cc1ccc(OC2=C(COc3ccc(CCCC(=O)O)cc3)CCCC2)cc1 [Example 50, 4-(4-((2-(p-tolyloxy)cyclohex-1-en-1-yl)methoxy)phenyl)butanoic Acid]
500 to 5000 | CC1CCC(c2ccc(C3(C#N)CC3)cc2)=C(COc2ccc(CCCC(=O)O)cc2)C1 (stereo not shown) [Example 53, 4-(4-((4′-(1-cyanocyclopropyl)-4-methyl-3,4,5,6-tetrahydro-[1,1′-biphenyl]-2-yl)methoxy)phenyl)butanoic Acid]
500 to 5000 | Cc1ccc(C2=C(COc3ccc(CCCC(=O)O)cc3)CC(F)CC2)cc1 (stereo not shown) [Example 54, 4-(4-((4-fluoro-4′-methyl-3,4,5,6-tetrahydro-[1,1′-biphenyl]-2-yl)methoxy)phenyl) butanoic Acid]
